Assay results from publication PMC6259611, “Comparative Anti-Infectious Bronchitis Virus (IBV) Activity of (-)-Pinene: Effect on Nucleocapsid (N) Protein” (Molecules, 2011).
“And” between values parts separate entries of the source, which are not always exact repeats. Identical values can stand only once.

Legend:
in vitro = details: African green monkey
Experimental: (§1) Vero-E6 (African green monkey kidney cells) was purchased from Harbin Veterinary Research Institute (Harbin, P. R. China). The cells were grown in monolayer culture with Dulbecco’s modified Eagle’s medium (DMEM) supplemented with 10% fetal calf serum (FCS), 100 U/mL penicillin and 100 μg/mL streptomycin. The monolayers were removed from their plastic surfaces and serially passaged whenever they became confluent. Cells were plated out onto 96-well culture plates for cytotoxicity and anti-IBV assays, and propagated at 37 °C in an atmosphere of 5 % CO2.
(§2) The supernatants were discarded, washed with PBS twice and MTT reagent (5 mg/mL in PBS) was added to each well, after incubated at 37 °C for 4 h, remove the supernatants, then 200 μL DMSO was added and incubated at 37 °C for another 30 min. After that the plates were read on an ELISA reader (Thermo Molecular Devices Co., Union City, USA) at 570/630 nm. The mean OD of the cell control wells was assigned a value of 100%. The maximal non-toxic concentration (TD0) and 50% cytotoxic concentration (CC50) were calculated by linear regression analysis of the dose-response curves generated from the data.

IBV (Gray strain) [1] = assay: Anti-IBV activity (inhibition of virus replication, MTT method); format: cell-based, Infectious bronchitis virus; details: Avian coronavirus, Vero, 72 h
Experimental: The IBV Gray strain was purchased from National Control Institute of Veterinatory Bioproducts and Pharmaceuticals (Beijing, P. R. China). Virus was routinely grown on Vero-E6 cells. IBV-Gray stock cultures were prepared from supernatants of infected cells and stored at −80 °C.
Inhibition of virus replication was measured by MTT method. Serial dilution of the treated virus was adsorbed to the cells for 1 h at 37 °C. The residual inoculum was discared and infected cells were added with DMEM containing 2% FCS. Each assay was performed in eight replicates. After incubation for 72 h at 37 °C, the cultures were measured by MTT method as described above.

IBV (Gray strain) [2] = tested on: IBV (Gray strain)
Experimental: The compound was aspirated and cells were washed immediately before the IBV inoculum was added. […] For analyzing the anti-IBV inhibition during the adsorption period, the same amount of IBV was mixed with the drug and added to the cells immediately. After 1h of adsorption at 37 °C, the inoculum was removed and DMEM supplemented with 2% FCS were added to the cells. […] Each assay was run in eight replicates. Ribavirin was used as a positive control.

Vero-E6 cells = assay: in vitro; details: Vero cells, 72 h, MTT
Experimental: as §1, §2

Compound	CC50 at 72 h (in vitro) [µM]	IC50 (IBV (Gray strain) [1]) [µM]	inhibition (IBV (Gray strain) [2])	TD0 (maximum noncytotoxic concentration) (Vero-E6 cells) [mM]
CC1=CCC2CC1C2(C)C (stereo not drawn) [(-)-α-pinene]	> 10000	980 ± 250	87% and 67.6%	–
C=C1CCC2CC1C2(C)C (stereo not drawn) [(-)-β-pinene]	> 10000	1320 ± 110	81% and 55.4%	6.09 ± 0.31
NC(=O)c1ncn([C@@H]2O[C@H](CO)[C@@H](O)[C@H]2O)n1 [Ribavirin, ribavirin, reference compound]	> 1000	118 ± 20	90.2 ± 2.8%	–
